The source of these data is patent US20020188132A1, “Heteroaryl acetylenic sulfonamide and phosphinic acid amide hydroxamic acid TACE inhibitors” (priority 1999, published 2002).

What all share (type): biochemical
In test [1] the target is MMP-13 (Homo sapiens, UniProt P45452). Put plainly: MMP-13 inhibition (thiopeptide or fluorescent peptide substrate). The method, then:
(§1) These standard pharmacological test procedures are based on the cleavage of a thiopeptide substrates such as Ac-Pro-Leu-Gly(2-mercapto-4-methyl-pentanoyl)-Leu-Gly-OEt by the matrix metalloproteinases MMP-1, MMP-13 (collagenases) or MMP-9 (gelatinase), which results in the release of a substrate product that reacts calorimetrically with DTNB (5,5′-dithiobis(2-nitro-benzoic acid)). The enzyme activity is measured by the rate of the color increase. The thiopeptide substrate is made up fresh as a 20 mM stock in 100% DMSO and the DTNB is dissolved in 100% DMSO as a 100 mM stock and stored in the dark at room temperature. […] The buffer, enzyme, vehicle or inhibitor, and DTNB/substrate are added in this order to a 96 well plate (total reaction volume of 200 μl) and the increase in color is monitored spectrophotometrically for 5 minutes at 405 nm on a plate reader and the increase in color over time is plotted as a linear line.
(§2) Alternatively, a fluorescent peptide substrate is used. […] Upon cleavage of the substrate by an MMP, the fluorescence that is generated is quantitated on the fluorescence plate reader. […] The reaction is read (excitation 340 nm, emission 444 nm) for 10 min. and the increase in fluorescence over time is plotted as a linear line.
(§3) For either the thiopeptide or fluorescent peptide test procedures, the slope of the line is calculated and represents the reaction rate. […]

The target of test [2] is MMP-9 (Homo sapiens, UniProt P14780). Put plainly: MMP-9 inhibition (thiopeptide or fluorescent peptide substrate). The method, then:
as §1, §2, §3

The target of test [3] is T1, MMP-1 (Homo sapiens, UniProt P03956).
T1 sequence (P03956 100-469): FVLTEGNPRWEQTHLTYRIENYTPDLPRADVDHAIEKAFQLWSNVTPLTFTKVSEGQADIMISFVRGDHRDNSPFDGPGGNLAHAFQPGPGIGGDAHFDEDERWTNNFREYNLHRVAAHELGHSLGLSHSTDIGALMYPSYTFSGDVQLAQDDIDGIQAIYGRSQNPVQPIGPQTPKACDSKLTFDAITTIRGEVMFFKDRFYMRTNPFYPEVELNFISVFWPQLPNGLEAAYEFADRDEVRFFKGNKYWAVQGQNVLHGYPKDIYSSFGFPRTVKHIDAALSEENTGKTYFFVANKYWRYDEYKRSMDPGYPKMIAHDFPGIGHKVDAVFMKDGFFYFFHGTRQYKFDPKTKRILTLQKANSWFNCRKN
Put plainly: MMP-1 inhibition (thiopeptide or fluorescent peptide substrate). The procedure:
as §1, §2, §3

For test [4], the target named is TACE (Homo sapiens, UniProt P78536). The experiment in a line: TACE inhibition (fluorescent peptidyl substrate). The procedure:
Using 96-well black microtiter plates, each well receives a solution composed of 10 μL TACE (final concentration 1 μg/mL), 70 μL Tris buffer, pH 7.4 containing 10% glycerol (final concentration 10 mM), and 10 μL of test compound solution in DMSO (final concentration 1 μM, DMSO concentration <1%) and incubated for 10 minutes at room temperature. The reaction is initiated by addition of a fluorescent peptidyl substrate (final concentration 100 μM) to each well and then shaking on a shaker for 5 sec.
The reaction is read (excitation 340 nm, emission 420 nm) for 10 min. and the increase in fluorescence over time is plotted as a linear line. The slope of the line is calculated and represents the reaction rate.
The linearity of the reaction rate is confirmed (r^2>0.85). The mean (x±sem) of the control rate is calculated and compared for statistical significance (p<0.05) with drug-treated rates using Dunnett's multiple comparison test. Dose-response relationships can be generate using multiple doses of drug and IC50 values with 95% CI are estimated using linear regression.

What is called IC50 is the concentration needed to halve the response being measured. Read a low IC50 as greater potency.

Chain of TACE (P78536 215-824): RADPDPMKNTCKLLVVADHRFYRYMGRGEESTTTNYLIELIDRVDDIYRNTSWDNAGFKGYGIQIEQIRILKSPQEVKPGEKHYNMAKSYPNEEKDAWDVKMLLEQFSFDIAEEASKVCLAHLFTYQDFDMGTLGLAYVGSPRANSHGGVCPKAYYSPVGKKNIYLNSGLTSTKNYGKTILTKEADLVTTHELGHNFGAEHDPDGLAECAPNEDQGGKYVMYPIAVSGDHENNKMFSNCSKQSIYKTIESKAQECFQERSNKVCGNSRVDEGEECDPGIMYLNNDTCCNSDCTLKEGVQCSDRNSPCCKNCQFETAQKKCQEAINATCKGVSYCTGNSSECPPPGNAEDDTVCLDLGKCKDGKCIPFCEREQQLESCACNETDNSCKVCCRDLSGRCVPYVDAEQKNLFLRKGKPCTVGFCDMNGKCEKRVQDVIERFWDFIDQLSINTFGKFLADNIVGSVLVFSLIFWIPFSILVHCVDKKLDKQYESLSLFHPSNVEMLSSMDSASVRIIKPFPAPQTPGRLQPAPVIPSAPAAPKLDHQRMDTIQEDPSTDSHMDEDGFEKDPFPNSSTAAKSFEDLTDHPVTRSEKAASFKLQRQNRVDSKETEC
Chain of MMP-9 (P14780 94-707): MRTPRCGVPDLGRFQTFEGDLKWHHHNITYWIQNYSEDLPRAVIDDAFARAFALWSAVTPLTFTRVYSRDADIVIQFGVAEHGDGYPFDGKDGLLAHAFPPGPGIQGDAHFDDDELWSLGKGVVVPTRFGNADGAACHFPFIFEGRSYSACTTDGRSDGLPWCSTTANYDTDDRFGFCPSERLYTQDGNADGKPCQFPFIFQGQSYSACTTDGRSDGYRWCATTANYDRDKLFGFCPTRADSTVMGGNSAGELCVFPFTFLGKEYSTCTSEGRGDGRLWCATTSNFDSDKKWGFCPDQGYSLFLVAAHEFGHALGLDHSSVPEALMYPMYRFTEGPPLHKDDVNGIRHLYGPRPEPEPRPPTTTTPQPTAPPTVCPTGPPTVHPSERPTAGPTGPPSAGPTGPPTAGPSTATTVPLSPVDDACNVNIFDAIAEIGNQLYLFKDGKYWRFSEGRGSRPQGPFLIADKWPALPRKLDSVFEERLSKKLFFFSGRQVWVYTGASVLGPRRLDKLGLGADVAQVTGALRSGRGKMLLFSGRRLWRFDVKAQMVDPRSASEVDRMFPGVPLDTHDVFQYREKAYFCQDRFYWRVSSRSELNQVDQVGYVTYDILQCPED

As to `CC#CCOc1ccc(S(=O)(=O)N(C)c2c(C(=O)NO)cc(OC)nc2OC)cc1` [Example 33, 3-[Methyl-(4-but-2-ynyloxy-benzenesulfonyl)-animo]-N-hydroxy-2,6-dimethoxy-isonicotinamide], the half-maximal inhibitory concentration (IC50) was 478 nM in test [1], 607 nM in test [2], roughly 10000 nM in test [3] and 11 nM in test [4].

Consider `CC#CCOc1ccc(S(=O)(=O)Nc2c(C(=O)NO)cc(OC)nc2OC)cc1` [Example 35, 3-(4-But-2-ynyloxy-benzenesulfonylamino)-N-hydroxy-2,6-dimethoxy-isonicotinamide], for which half-maximal inhibition in test [4] (IC50) required 44 nM.
